Data reported in patent US9650379B2 (CHONG KUN DANG PHARMACEUTICAL CORP., priority 2013, dated 2017).

Experiments:
HDAC1 = biological target: T1, HDAC1 (Homo sapiens, UniProt Q13547); test: Inhibition of HDAC1 activity (HDAC1 fluorimetric drug discovery assay kit); assay type: biochemical; conditions: test concentrations 100, 1000 and 10000 nM; 37° C., 60 minutes
T1 construct: purchased Enzolifesciences BML-AK511
Procedure: (§1) Assays were performed using a HDAC1 fluorimetric drug discovery assay kit (Enzolifesciences: BML-AK511) and a HDAC6 human recombinant (Calbiochem: 382180). The assay mixture of the kit was treated with a test compound at concentrations of 100, 1000 and 10000 nM for HDAC1 assay and concentrations of 0.1, 1, 10, 100 and 1000 nM for HDAC6 assay. The treated assay mixture was allowed to react at 37° C. for 60 minutes, and then was treated with a developer and allowed to stand at 37° C. for 30 minutes, followed by quantification of the fluorescence.

HDAC6 human recombinant = biological target: T2, HDAC6 human recombinant (Homo sapiens, UniProt Q9UBN7); test: Inhibition of HDAC6 activity (fluorimetric assay); assay type: biochemical; conditions: test concentrations 0.1, 1, 10, 100 and 1000 nM; 37° C., 60 minutes
T2 construct: purchased Calbiochem 382180
T2 sequence (Q9UBN7 1-1215): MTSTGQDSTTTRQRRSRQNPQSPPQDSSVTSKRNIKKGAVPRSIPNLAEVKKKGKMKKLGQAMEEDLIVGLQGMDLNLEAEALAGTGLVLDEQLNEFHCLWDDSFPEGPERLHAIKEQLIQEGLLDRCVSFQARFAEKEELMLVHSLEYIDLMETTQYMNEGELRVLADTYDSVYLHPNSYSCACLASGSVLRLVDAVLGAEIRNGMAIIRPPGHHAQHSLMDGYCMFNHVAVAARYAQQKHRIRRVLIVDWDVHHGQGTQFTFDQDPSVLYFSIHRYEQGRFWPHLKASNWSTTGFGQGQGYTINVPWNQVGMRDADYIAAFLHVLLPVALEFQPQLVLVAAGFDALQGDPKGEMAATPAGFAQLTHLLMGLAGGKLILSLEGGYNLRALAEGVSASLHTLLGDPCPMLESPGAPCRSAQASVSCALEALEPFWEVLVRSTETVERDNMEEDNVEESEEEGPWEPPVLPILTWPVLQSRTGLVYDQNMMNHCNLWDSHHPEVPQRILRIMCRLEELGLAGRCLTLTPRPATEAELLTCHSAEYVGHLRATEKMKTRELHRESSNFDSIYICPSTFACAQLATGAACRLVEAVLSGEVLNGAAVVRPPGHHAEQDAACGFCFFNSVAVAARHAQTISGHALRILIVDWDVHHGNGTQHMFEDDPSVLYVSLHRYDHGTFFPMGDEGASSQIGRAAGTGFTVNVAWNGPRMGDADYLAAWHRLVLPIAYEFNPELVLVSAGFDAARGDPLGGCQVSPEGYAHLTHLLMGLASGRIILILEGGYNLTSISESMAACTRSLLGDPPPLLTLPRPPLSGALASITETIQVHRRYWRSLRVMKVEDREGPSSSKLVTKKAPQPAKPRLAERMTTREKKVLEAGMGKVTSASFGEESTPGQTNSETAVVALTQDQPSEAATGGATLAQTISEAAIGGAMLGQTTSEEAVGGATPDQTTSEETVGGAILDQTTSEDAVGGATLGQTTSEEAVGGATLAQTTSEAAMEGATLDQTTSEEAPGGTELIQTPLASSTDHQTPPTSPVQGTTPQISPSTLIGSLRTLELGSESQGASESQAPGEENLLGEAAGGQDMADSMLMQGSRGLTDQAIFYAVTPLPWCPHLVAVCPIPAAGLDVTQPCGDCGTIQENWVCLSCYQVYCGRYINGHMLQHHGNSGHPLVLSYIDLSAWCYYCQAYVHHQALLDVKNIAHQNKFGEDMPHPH
Procedure: as §1

T1 sequence (Q13547 whole entry): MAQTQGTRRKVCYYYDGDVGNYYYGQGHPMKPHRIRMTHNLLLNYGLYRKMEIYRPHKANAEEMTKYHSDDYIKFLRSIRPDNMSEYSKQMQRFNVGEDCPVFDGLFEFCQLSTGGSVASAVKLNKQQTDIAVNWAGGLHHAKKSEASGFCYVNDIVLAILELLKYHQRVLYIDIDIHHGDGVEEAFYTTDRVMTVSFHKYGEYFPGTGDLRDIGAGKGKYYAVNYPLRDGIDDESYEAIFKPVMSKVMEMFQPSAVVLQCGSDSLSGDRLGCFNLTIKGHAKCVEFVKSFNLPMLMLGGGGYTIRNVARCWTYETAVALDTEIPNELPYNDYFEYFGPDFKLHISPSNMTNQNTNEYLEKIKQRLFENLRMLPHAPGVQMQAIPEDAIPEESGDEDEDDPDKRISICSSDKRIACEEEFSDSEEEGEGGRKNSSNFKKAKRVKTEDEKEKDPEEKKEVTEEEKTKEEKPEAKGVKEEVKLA

| Structure (SMILES) | IC50 (HDAC1) [nM] | IC50 (HDAC6 human recombinant) [nM] |
| --- | --- | --- |
| O=C(NO)c1ccc(Cn2ccc3c(-c4ccc(F)cc4F)ccnc32)cc1 [Compound 658, 4-((4-(2,4-difluorophenyl)-1H-pyrrolo[2,3-b]pyridin-1-yl)methyl)-N-hydroxybenzamide] | 1950 | 21 |
| CC(C)(C)OC(=O)N1CC=C(c2ccnc3c2ccn3Cc2ccc(C(=O)NO)cc2)CC1 [Compound 784] | 930 | 16 |
| CC(C)(F)CN1CCN(Cc2ccc(-c3ccnc4c3ccn4Cc3ccc(C(=O)NO)cc3)cc2)CC1 [Compound 763, 4-((4-(4-((4-(2-fluoro-2-methylpropyl)piperazin-1-yl)methyl)phenyl)-1H-pyrrolo[2,3-b]pyridin-1-yl)methyl)-N-hydroxybenzamide] | 4200 | 300 |
| O=C(NO)c1ccc(Cn2ccc3c(N4CCN(c5ccc(C(F)(F)F)cn5)CC4)ccnc32)cc1 [Compound 700, N-hydroxy-4-((4-(4-(5-(trifluoromethyl)pyridin-2-yl)piperazin-1-yl)-1H-pyrrolo[2,3-b]pyridin-1-yl)methyl)benzamide] | 4240 | 41 |
| CC(C)(O)CN1CCC(c2ccc3ccn(Cc4ccc(C(=O)NO)cc4)c3n2)CC1 [Compound 991, N-hydroxy-4-((6-(1-(2-hydroxy-2-methylpropyl)piperidin-4-yl)-1H-pyrrolo[2,3-b]pyridin-1-yl)methyl)benzamide] | 880 | 32 |
| COc1ccc(CN2CCC(c3cnc4c(ccn4Cc4ccc(C(=O)NO)cc4)c3)CC2)cc1 [Compound 830, N-hydroxy-4-((5-(1-(4-methoxybenzyl)piperidin-4-yl)-1H-pyrrolo[2,3-b]pyridin-1-yl)methyl)benzamide] | 1920 | 13 |
| CC1CN(c2cnc3c(ccn3Cc3ccc(C(=O)NO)cc3)c2)CC(C)O1 (centres unmarked) [Compound 807, 4-((5-(2,6-dimethylmorpholino)-1H-pyrrolo[2,3-b]pyridin-1-yl)methyl)-N-hydroxybenzamide] | 390 | 10.4 |
| CC(C)(C)OC(=O)N1CCN(c2cnc3c(ccn3Cc3ccc(C(=O)NO)cc3)c2)CC1 [Compound 746, tert-butyl 4-(1-(4-(hydroxycarbamoyl)benzyl)-1H-pyrrolo[2,3-b]pyridine-5-yl)piperazine-1-carboxylate] | 1960 | 22 |
| CC(C)(O)CN1CCC(c2cnc3c(ccn3Cc3ccc(C(=O)NO)cc3)c2)CC1 [Compound 714, N-hydroxy-4-((5-(1-(2-hydroxy-2-methylpropyl)piperidin-4-yl)-1H-pyrrolo[2,3-b]pyridin-1-yl)methyl)benzamide] | 1200 | 12 |
| O=C(NO)c1ccc(Cn2ccc3ccc(C4CCN(Cc5cccnc5)CC4)nc32)cc1 [Compound 992, N-hydroxy-4-((6-(1-(pyridin-3-ylmethyl)piperidin-4-yl)-1H-pyrrolo[2,3-b]pyridin-1-yl)methyl)benzamide] | 860 | 34 |
| O=C(NO)c1ccc(Cn2ccc3cc(N4CCC5(CC4)CN(Cc4cccnc4)C5)cnc32)cc1 [Compound 957, N-hydroxy-4-((5-(2-(pyridin-3-ylmethyl)-2,7-diazaspiro[3.5]nonan-7-yl)-1H-pyrrolo[2,3-b]pyridin-1-yl)methyl)benzamide] | 650 | 1.6 |
| O=C(NO)c1ccc(Cn2ccc3cc(C4CCN(Cc5ccccc5F)CC4)cnc32)cc1 [Compound 839, 4-((5-(1-(2-fluorobenzyl)piperidin-4-yl)-1H-pyrrolo[2,3-b]pyridin-1-yl)methyl)-N-hydroxybenzamide] | 1910 | 17.5 |
| COc1ccc(CN2CCC3(CCN(c4ccnc5c4ccn5Cc4ccc(C(=O)NO)cc4)CC3)C2)cc1 [Compound 1021, N-hydroxy-4-((4-(2-(4-methoxybenzyl)-2,8-diazaspiro[4.5]decan-8-yl)-1H-pyrrolo[2,3-b]pyridin-1-yl)methyl)benzamide] | 240 | 14 |
| CC1CCN(c2cnc3c(ccn3Cc3ccc(C(=O)NO)cc3)c2)CC1 [Compound 805, N-hydroxy-4-((5-(4-methylpiperidin-1-yl)-1H-pyrrolo[2,3-b]pyridin-1-yl)methyl)benzamide] | 1610 | 38 |
| O=C(NO)c1ccc(Cn2ccc3cc(-c4cncnc4)cnc32)cc1 [Compound 124, N-hydroxy-4-((5-(pyrimidin-5-yl)-1H-pyrrolo[2,3-b]pyridin-1-yl)methyl)benzamide] | 540 | 120 |
| O=C(NO)c1ccc(Cn2ccc3cc(N4CCC5(CCN(Cc6cccnc6)C5)CC4)cnc32)cc1 [Compound 1101, N-hydroxy-4-((5-(2-(pyridin-3-ylmethyl)-2,8-diazaspiro[4.5]decan-8-yl)-1H-pyrrolo[2,3-b]pyridin-1-yl)methyl)benzamide] | 500 | 1 |
| O=C(NO)c1ccc(Cn2ccc3cc(C4CCN(Cc5cccc(F)c5)CC4)cnc32)cc1 [Compound 781, 4-((5-(1-(3-fluorobenzyl)piperidin-4-yl)-1H-pyrrolo[2,3-b]pyridin-1-yl)methyl)-N-hydroxybenzamide] | 2440 | 18 |
| CC(O)(CO)CN1CCC(c2ccnc3c2ccn3Cc2ccc(C(=O)NO)cc2)CC1 (centres unmarked) [Compound 945, 4-((4-(1-(2,3-dihydroxy-2-methylpropyl)piperidin-4-yl)-1H-pyrrolo[2,3-b]pyridin-1-yl)methyl)-N-hydroxybenzamide] | 200 | 3.7 |
| CN1CC=C(c2cnc3c(ccn3Cc3ccc(C(=O)NO)cc3)c2)CC1 [Compound 647, N-hydroxy-4-((5-(1-methyl-1,2,3,6-tetrahydropyridin-4-yl)-1H-pyrrolo[2,3-b]pyridin-1-yl)methyl)benzamide] | 1170 | 15 |
| CC(CC(=O)O)N1CCC(c2ccnc3c2ccn3Cc2ccc(C(=O)NO)cc2)CC1 (centres unmarked) [Compound 1015, 3-(4-(1-(4-(hydroxycarbamoyl)benzyl)-1H-pyrrolo[2,3-b]pyridin-4-yl)piperidin-1-yl)butanoic acid] | 670 | 8.5 |
| CC(C)(F)CN1CCC(c2cnc3c(ccn3Cc3ccc(C(=O)NO)cc3)c2)CC1 [Compound 618, 4-((5-(1-(2-fluoro-2-methylpropyl)piperidin-4-yl)-1H-pyrrolo[2,3-b]pyridin-1-yl)methyl)-N-hydroxybenzamide] | 1300 | 16 |
| COc1ccc(CN2CC3(CCN(c4cnc5c(ccn5Cc5ccc(C(=O)NO)cc5)c4)CC3)C2)cc1 [Compound 1125, N-hydroxy-4-((5-(2-(4-methoxybenzyl)-2,7-diazaspiro[3.5]nonan-7-yl)-1H-pyrrolo[2,3-b]pyridin-1-yl)methyl)benzamide] | – | 1.8 |
| O=C(NO)c1ccc(Cn2ccc3cc(N4CCN(Cc5ccc(F)cc5)CC4)cnc32)cc1 [Compound 852, 4-((5-(4-(4-fluorobenzyl)piperazin-1-yl)-1H-pyrrolo[2,3-b]pyridin-1-yl)methyl)-N-hydroxybenzamide] | 2210 | 11.5 |
| COc1cccc(CN2CCC(c3ccnc4c3ccn4Cc3ccc(C(=O)NO)cc3)CC2)c1 [Compound 859, N-hydroxy-4-((4-(1-(3-methoxybenzyl)piperidin-4-yl)-1H-pyrrolo[2,3-b]pyridin-1-yl)methyl)benzamide] | 330 | 6 |
| COc1cccc(CN2[C@H](C)CN(c3cnc4c(ccn4Cc4ccc(C(=O)NO)cc4)c3)C[C@@H]2C)c1 [Compound 1003] | 2680 | 7.7 |
| COc1ccc(CN2CCC(c3cnc4c(ccn4Cc4ccc(C(=O)NO)cc4)c3)CC2)cn1 [Compound 1098, N-hydroxy-4-((5-(1-((6-methoxypyridin-3-yl)methyl)piperidin-4-yl)-1H-pyrrolo[2,3-b]pyridin-1-yl)methyl)benzamide] | – | 5230 |
